Laboratory results taken from article PMC12153338, “Resistance to oxyimino-cephalosporins conferred by an alternative mechanism of hydrolysis by the Acinetobacter-derived cephalosporinase-33 (ADC-33), a class C β-lactamase present in carbapenem-resistant Acinetobacter baumannii (CRAb)” (mBio, 2025).
≈ marks a conversion by molar mass, not a printed value.

Tests used:
Assay type in all cases: cell-based
[1] = tested on: ADC-7 in DH10B Escherichia coli; assay: MIC by broth microdilution, ADC-7 in DH10B E. coli; conditions: DH10B E. coli expressing ADC-7 (non-Adup) from pBCSK−, FDC in iron-depleted cation-adjusted MH broth, mode of triplicate
Protocol: (§1) Susceptibility testing to standard antibiotics was performed by broth microdilution according to 2024 Clinical and Laboratory Standards Institute (CLSI) guidelines ([38]). MICs for FDC were done in iron-depleted cation-adjusted Mueller-Hinton (MH) broth according to CLSI methods. All MICs were interpreted according to the 2024 CLSI guidelines ([38]). MICs are done in triplicate, and the mode MIC value is reported.
(§2) blaADC-7 pBCSK− was cloned and expressed in E. coli DH10B cells as previously described for MIC determinations ([3]). The pBCSK-non-inducible phagemid vector has a chloramphenicol resistance gene used to aid selection. All other blaADC variants were synthesized by GenScript according to the blaADC-7 pBCSK− strategy, cloning into the XbaI/BamHI sites of the pBCSK− vector ([5]).

[2] = tested on: ADC-30 in DH10B Escherichia coli; assay: MIC by broth microdilution, ADC-30 in DH10B E. coli; conditions: DH10B E. coli expressing ADC-30 (non-Adup) from pBCSK−, FDC in iron-depleted cation-adjusted MH broth, mode of triplicate
Protocol: as §1, §2

[3] = tested on: ADC-73 in DH10B Escherichia coli; assay: MIC by broth microdilution, ADC-73 in DH10B E. coli; conditions: DH10B E. coli expressing ADC-73 (non-Adup) from pBCSK−, FDC in iron-depleted cation-adjusted MH broth, mode of triplicate
Protocol: as §1, §2

[4] = tested on: ADC-143 in DH10B Escherichia coli; assay: MIC by broth microdilution, ADC-143 in DH10B E. coli; conditions: DH10B E. coli expressing ADC-143 (non-Adup) from pBCSK−, FDC in iron-depleted cation-adjusted MH broth, mode of triplicate
Protocol: as §1, §2

[5] = tested on: ADC-217 in DH10B Escherichia coli; assay: MIC by broth microdilution, ADC-217 in DH10B E. coli; conditions: DH10B E. coli expressing ADC-217 (non-Adup) from pBCSK−, FDC in iron-depleted cation-adjusted MH broth, mode of triplicate
Protocol: as §1, §2

[6] = tested on: ADC-33 in DH10B Escherichia coli; assay: MIC by broth microdilution, ADC-33 in DH10B E. coli; conditions: DH10B E. coli expressing ADC-33 (Adup) from pBCSK−, FDC in iron-depleted cation-adjusted MH broth, mode of triplicate
Protocol: as §1, §2

[7] = tested on: ADC-172 in DH10B Escherichia coli; assay: MIC by broth microdilution, ADC-172 in DH10B E. coli; conditions: Escherichia coli; DH10B E. coli expressing ADC-172 (Adup) from pBCSK−; FDC in iron-depleted cation-adjusted MH broth; mode of triplicate; read-out: MIC
Protocol: as §1, §2

[8] = tested on: ADC-218 in DH10B Escherichia coli; assay: MIC by broth microdilution, ADC-218 in DH10B E. coli; conditions: DH10B E. coli expressing ADC-218 (Adup) from pBCSK−, FDC in iron-depleted cation-adjusted MH broth, mode of triplicate
Protocol: as §1, §2

[9] = tested on: ADC-219 in DH10B Escherichia coli; assay: MIC by broth microdilution, ADC-219 in DH10B E. coli; conditions: DH10B E. coli expressing ADC-219 (Adup) from pBCSK−, FDC in iron-depleted cation-adjusted MH broth, mode of triplicate
Protocol: as §1, §2

[10] = tested on: DH10B Escherichia coli pBCSK− no insert; assay: MIC by broth microdilution, DH10B E. coli with pBCSK− no insert; conditions: DH10B E. coli with pBCSK− no insert (control strain), FDC in iron-depleted cation-adjusted MH broth
Protocol: as §1, §2

DH10B alone = assay: MIC by broth microdilution, DH10B alone; conditions: Escherichia coli; DH10B alone (control strain); FDC in iron-depleted cation-adjusted MH broth
Protocol: as §1, §2

Structure (SMILES)	MIC [1] [µg/mL]	MIC [2] [µg/mL]	MIC [3] [µg/mL]	MIC [4] [µg/mL]	MIC [5] [µg/mL]	MIC [6] [µg/mL]	MIC [7] [µg/mL]	MIC [8] [µg/mL]	MIC [9] [µg/mL]	MIC [10] [µg/mL]	MIC (DH10B alone) [µg/mL]
C[C@H]1[C@H](NC(=O)/C(=N\OC(C)(C)C(=O)O)c2csc(N)n2)C(=O)N1S(=O)(=O)O [ATM, aztreonam]	8 (≈ 18.4 µM)	8 (≈ 18.4 µM)	2 (≈ 4.59 µM)	16 (≈ 36.7 µM)	8 (≈ 18.4 µM)	64 (≈ 147 µM)	32 (≈ 73.5 µM)	256 (≈ 588 µM)	32 (≈ 73.5 µM)	0.12 (≈ 0.276 µM)	0.25 (≈ 0.574 µM)
CC(=O)OCC1=C(C(=O)O)N2C(=O)[C@@H](NC(=O)Cc3cccs3)[C@H]2SC1 [CEF, cephalothin]	4100 (≈ 10300 µM)	4100 (≈ 10300 µM)	2050 (≈ 5170 µM)	2050 (≈ 5170 µM)	2050 (≈ 5170 µM)	2050 (≈ 5170 µM)	2050 (≈ 5170 µM)	2050 (≈ 5170 µM)	1020 (≈ 2580 µM)	8 (≈ 20.2 µM)	16 (≈ 40.4 µM)
CO/N=C(\C(=O)N[C@@H]1C(=O)N2C(C(=O)O)=C(COC(C)=O)CS[C@H]12)c1csc(N)n1 [CTX, cefotaxime]	64 (≈ 141 µM)	32 (≈ 70.3 µM)	32 (≈ 70.3 µM)	32 (≈ 70.3 µM)	64 (≈ 141 µM)	64 (≈ 141 µM)	32 (≈ 70.3 µM)	256 (≈ 562 µM)	32 (≈ 70.3 µM)	0.06 (≈ 0.132 µM)	0.12 (≈ 0.263 µM)
